Data as given in patent US20110300110A1, “ENAMINOCARBONYL COMPOUND/BENEFICIAL ORGANISM COMBINATIONS” (BAYER CROPSCIENCE AG, priority 2008, published 2011).

Columns and labels:
Assay type in all cases: in vivo
Myzus persicae [1] = experiment: Larvae treatment Coccinella: infestation by Myzus persicae on Savoy cabbage; details: Coccinella larvae added
Experimental: (§1) Foliar treatment is carried out using compound (I-5) in a concentration of 75 g of active compound per hectare.
(§2) Drench treatment is carried out using compound (I-5) in a concentration of 10 mg of active compound per plant.
(§3) Foliar treatment with Karate Zeon CS100 as toxic control was carried out in a concentration of 12.5 g of active compound per hectare.
Beneficial species: Coccinella septempunctata L2 larvae Pest: Myzus persicae
Each experiment is carried out in 3 repetitions with in each case 2 pot cages with in each case 5 larvae.
(§4) For the experiment, Savoy cabbage plants are grown in pots having a diameter of 14 cm, placed in a breeding cage and infested thoroughly with Myzus persicae. Per experiment, 6 pots having a well-established aphid population are selected and the aphids are rated by estimation of their number. The plants are treated with the active compound solution of the appropriate concentration.
After the spray coating has dried on, a quartz sand layer of a thickness of about 1 cm is applied to the soil in the pot, and the pot cage is put over the plant. In each case 5 Coccinella larvae are then counted out, and in each case 5 specimen are added to the plants in the pot cage.
For each plant, at the beginning the Myzus persicae number is estimated at the appropriate points in time and the dead, dying and alive larvae are counted separately. All larvae, i.e. all larvae present on the plant and the surface of the quartz sand base, are counted.

[2] = test system: Anthocoris nemoralis adults; experiment: Treatment Anthocoris adult: kill of beneficial species adults on maize
Experimental: as §1, §2, §3
(§5) Beneficial species: Anthocoris nemoralis adults Pest: Metopolophium dirhodum
(§6) Per experiment, 3 repetitions with in each case 2 pot cages with in each case 5 adults are carried out.
as §4, with “maize” for “Savoy cabbage”, “Metopolophium dirhodum.” for “Myzus persicae.”
(§7) After the spray coating has dried on, a quartz sand layer of a thickness of about 1 cm is applied to the soil in the pot, and the pot cage is put over the plant.
(§8) In each case 5 Anthocoris adults are then counted out, and in each case 5 specimen are added to the plants in the pot cage.
(§9) For each plant, at the beginning the Metopolophium dirhodum number is estimated at the appropriate points in time and the dead, dying and alive adults are counted separately. All adults, i.e. all adults present on the plant and the surface of the quartz sand base, are counted.

adult Orius laevigatus = experiment: Residual test with adult Orius laevigatus on bell-pepper leaves
Experimental: Foliar treatment is carried out using compound (I-5) in a concentration of 100 g of active compound per hectare.
Drench treatment is carried out using compound (I-5) in a concentration of 15 mg of active compound per plant.
Foliar treatment with Karate Zeon CS100 as toxic control was carried out in a concentration of 12.5 g of active compound per hectare. The active compound in its respective formulation is brought to the required concentration by dilution with water.
Bell-pepper plants cultivated in a greenhouse are treated with the respective active compound solutions. 1, 8, 16 and 23 days after the application, leaves are plucked from the test plants (5 samples per plot). The individual leaves are then mounted in test cages. 10 adult Orius laevigatus are added to each cage. The test cages are placed under controlled conditions in a climatized chamber. The kill of the insects is determined after 24, 48 and 72 hours of exposure.

Metopolophium dirhodum = experiment: Treatment Anthocoris adult: infestation by Metopolophium dirhodum on maize; details: Anthocoris adults added
Experimental: as §1, §2, §3, §5, §6
as §4, with “maize” for “Savoy cabbage”, “Metopolophium dirhodum.” for “Myzus persicae.”
as §7, §8, §9

Myzus persicae [3] = experiment: Larvae treatment Aphidoletes: infestation by Myzus persicae on Savoy cabbage; details: Savoy cabbage with Aphidoletes larvae
Experimental: as §1, §2, §3
Beneficial species: Aphidoletes aphidimyza larvae Pest: Myzus persicae
Each experiment is carried out in 3 repetitions.
Per plot, 6 Savoy cabbage plants are placed into a planting-out tray and infested with Myzus persicae. About 1 week later, with a well-established Myzus population, the Aphidoletes aphidimyza are added. The application is carried after about 2 weeks once sufficient L2 stage Aphidoletes larvae are present (at least 20 larvae per tray).
In preparation for the application, the plants are reduced to 4 healthy green leaves.
Immediately prior to the application, the Myzus population and the number of Aphidoletes larvae are rated. For the application, all 6 plants of a plot are placed onto the turntable, and the amount of spray liquor for 0.666 m^2 is applied while turning slowly. After the application, the trays are placed into the standard cages.
For each plant, the number of Myzus persicae is estimated at the beginning at the appropriate points in time, and the larvae are counted accurately.

[4] = 5 days after application, drench 10 mg a.i./plant
[5] = 5 days after application, foliar: (I-5) 75 g a.i./ha, Karate Zeon CS100 12.5 g a.i./ha
[6] = prior to application (baseline), drench 10 mg a.i./plant
[7] = prior to application (baseline), foliar: (I-5) 75 g a.i./ha, Karate Zeon CS100 12.5 g a.i./ha

In the case of O=C1C=C(N(Cc2ccc(Cl)nc2)CC(F)F)CO1 [compound (I-5), 4-{[(6-chloropyrid-3-yl)methyl](2,2-difluoroethyl)amino}furan-2(5H)-one], the “Infestation by Myzus persicae (number per plant)” value (Myzus persicae [1]; [4]) was 165 number per plant, the “Infestation by Myzus persicae (number per plant)” value (Myzus persicae [1]; [5]) was 0 number per plant and the “Infestation by Myzus persicae (number per plant)” value (Myzus persicae [1]; [6]) was 552 number per plant. The “Infestation by Myzus persicae (number per plant)” value (Myzus persicae [1]; [7]) was 602 number per plant, the “kill of adult Anthocoris nemoralis [% Abbott]” value (“kill … [% Abbott]” below) ([2]; 0 days after application, drench 10 mg a.i./plant) was 0% and the “kill … [% Abbott]” value ([2]; 0 days after application, foliar: (I-5) 75 g a.i./ha, Karate Zeon CS100 12.5 g a.i./ha) was 0%. The “kill … [% Abbott]” value ([2]; 1 day after application, drench 10 mg a.i./plant) was 0%, the “kill … [% Abbott]” value ([2]; 1 day after application, foliar: (I-5) 75 g a.i./ha, Karate Zeon CS100 12.5 g a.i./ha) was 0% and the “kill … [% Abbott]” value ([2]; 3 days after application, drench 10 mg a.i./plant) was 1.7%. For the same compound, the “kill … [% Abbott]” value ([2]; 3 days after application, foliar: (I-5) 75 g a.i./ha, Karate Zeon CS100 12.5 g a.i./ha) was 3.3%, the “kill … [% Abbott]” value [2, 4] was 3.3% and the “kill … [% Abbott]” value [2, 5] was 6.7%. The “Activity against adult Orius leavigatus on bell-pepper [% kill calculated according to Schneider-Orelli]” value (adult Orius laevigatus; leaves plucked 1 day after application, drench 15 mg a.i./plant) was 36.3%, the “Activity against adult Orius leavigatus on bell-pepper [% kill calculated according to Schneider-Orelli]” value (adult Orius laevigatus; leaves plucked 1 day after application, foliar: (I-5) 100 g a.i./ha, Karate Zeon CS100 12.5 g a.i./ha) was 100% and the “Activity against adult Orius leavigatus on bell-pepper [% kill calculated according to Schneider-Orelli]” value (adult Orius laevigatus; leaves plucked 8 days after application, drench 15 mg a.i./plant) was 86.7%. The “Activity against adult Orius leavigatus on bell-pepper [% kill calculated according to Schneider-Orelli]” value (adult Orius laevigatus; leaves plucked 8 days after application, foliar: (I-5) 100 g a.i./ha, Karate Zeon CS100 12.5 g a.i./ha) was 98.1%, the “Activity against adult Orius leavigatus on bell-pepper [% kill calculated according to Schneider-Orelli]” value (adult Orius laevigatus; leaves plucked 16 days after application, drench 15 mg a.i./plant) was 72.3% and the “Activity against adult Orius leavigatus on bell-pepper [% kill calculated according to Schneider-Orelli]” value (adult Orius laevigatus; leaves plucked 16 days after application, foliar: (I-5) 100 g a.i./ha, Karate Zeon CS100 12.5 g a.i./ha) was 100%. The “Activity against adult Orius leavigatus on bell-pepper [% kill calculated according to Schneider-Orelli]” value (adult Orius laevigatus; leaves plucked 23 days after application, drench 15 mg a.i./plant) was 92.1%, the “Activity against adult Orius leavigatus on bell-pepper [% kill calculated according to Schneider-Orelli]” value (adult Orius laevigatus; leaves plucked 23 days after application, foliar: (I-5) 100 g a.i./ha, Karate Zeon CS100 12.5 g a.i./ha) was 100% and the “Infestation by Metopolophium dirhodum (number per plant)” value (Metopolophium dirhodum; [4]) was 2.5 number per plant. For the same compound, the “Infestation by Metopolophium dirhodum (number per plant)” value (Metopolophium dirhodum; [5]) was 0 number per plant, the “Infestation by Metopolophium dirhodum (number per plant)” value (Metopolophium dirhodum; drench 10 mg a.i./plant) was 85 number per plant and the “Infestation by Metopolophium dirhodum (number per plant)” value (Metopolophium dirhodum; foliar: (I-5) 75 g a.i./ha, Karate Zeon CS100 12.5 g a.i./ha) was 78 number per plant. The “Infestation by Myzus persicae (number per plant)” value (Myzus persicae [3]; [4]) was 19.4 number per plant, the “Infestation by Myzus persicae (number per plant)” value (Myzus persicae [3]; [5]) was 0 number per plant and the “Infestation by Myzus persicae (number per plant)” value (Myzus persicae [3]; [6]) was 367 number per plant. The “Infestation by Myzus persicae (number per plant)” value (Myzus persicae [3]; [7]) was 344 number per plant.
